The test in a line: cell cytotoxicity, dose response, cytotoxicity control, CellTiter-Glo (AID 1259333).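 Further: 0% = vehicle neutral controls and -100% = reference inhibitor positive controls.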 To be noted: cytotoxicity, CellTiter-Glo ATP luminescence.

Activity calls are given as the source filed them. How the calls were made is not given here; tested in parental BL2 cells.

In PubChem BioAssay AID1259333 (Broad Institute, 2017) one finds activity change, negative = cytotoxicity data, which are given here for nine molecules.

Regarding `Cc1cc(C(=O)COC(=O)c2cccn2C)c(C)n1Cc1ccco1`, under “at 10 µM (top of the series)”, the activity change, negative = cytotoxicity was 23.8% (inactive).

Consider `Oc1ccc2c(c1)OCC1(O)Cc3cc(O)c(O)cc3C21` (centres undefined), for which the activity change, negative = cytotoxicity (at 10 µM (top of the series)) is 8.98% (inactive).

With `Cc1ccc(S(=O)(=O)CCC(=O)N(CCCN2CCOCC2)c2nc3ccccc3s2)cc1`, the activity change, negative = cytotoxicity (at 10 µM (top of the series)) was 29.5% (inactive).

As for `C=C1C(=O)OC2CC1C(O)CC(C)=CCCC(C)=CC(O)CC2C` (centres undefined), the activity change, negative = cytotoxicity (at 10 µM (top of the series)) is 35.5% (inactive).

Regarding `N#C[C@@H]1[C@@H](c2ccc(C#CC3CCCCC3)cc2)[C@H](CO)N1C(=O)Nc1ccc(F)cc1`, the activity change, negative = cytotoxicity (at 10 µM (top of the series)) is 28.9% (inactive).

As for `O=C(C[C@@H]1C[C@H]2c3cc(NC(=O)Nc4ccc(C(F)(F)F)cc4)ccc3O[C@H]2[C@H](CO)O1)NCc1cc(F)ccc1F`, the activity change, negative = cytotoxicity (at 10 µM (top of the series)) is 31.2% (inactive).

Turning to `N#CC(C#N)=NNc1cccc(Cl)c1`, under “at 10 µM (top of the series)”, the activity change, negative = cytotoxicity is 69.4% (inactive).

Regarding `N#C[C@H]1[C@H](c2ccc(C#CC3CCCCC3)cc2)[C@@H](CO)N1C(=O)Nc1ccc(F)cc1`, the activity change, negative = cytotoxicity (at 3.5 µM (top of the series)) was 25.8% (inactive).

For `CO[C@@H](CN(C)S(=O)(=O)c1ccc(Cl)cc1)[C@H](C)CN(Cc1ccccc1Cl)[C@@H](C)CO`, under “at 10 µM (top of the series)”, the activity change, negative = cytotoxicity was 1.13% (inactive).
